Data: patent publication US9186390B2, “Methods and uses of TIE2 binding and/or activating agents” (Sunnybrook Health Sciences Center, priority 2010, dated 2015)
Entries after “also recorded” stand apart in the source; their conditions may differ.

Assays:
[1] = test system: CFU-G; assay: Methocult colony assay (ex vivo bone marrow proliferation and differentiation); format: cell-based, CD1 mice; conditions: 1 ng/ml or 10 ng/ml, Methocult M3434, 7 days
Method: Bone marrow was flushed from the femur bones of two month old CD1 mice and was suspended in Iscove's Modified Dulbecco's Media (Sigma, St. Louis, Mo.) at a concentration of 1×10^5 per ml. Cells were thoroughly suspended in methocellulose M3434 media (Stem Cell Technologies, Vancouver, BC) such that 1×10^4 cells per 35 mm tissue culture dish were dispensed. Prior to dispensing into the tissue culture dishes either vehicle (PBS) or Vasculotide 1 ng/ml or 10 ng/ml was mixed in. Plates were placed in an incubator at 37° C., 5% CO2 for 7 days without replenishment of vehicle or Vasculotide. […] Using an ex vivo model of bone marrow proliferation and differentiation (methocult), the influence of Vasculotide on bone marrow extracted from the femurs of normal CD1 mice was observed. Bone marrow was disaggregated and resuspended in methocult M3434 media plus Vasculotide (Vasc 1 ng/ml or 10 ng/ml) or control (PBS).

[2] = test system: chronic asthma mice; assay: Chronic asthma model (ovalbumin sensitization, nebulized challenge, d42 / d62); format: in vivo, Balb/c mice
Method: (Chronic asthma model) Seven week old female Balb/c mice were injected intraperitoneally (IP) with 20 μg of chicken ovalbumin (OVA) absorbed with 1 mg aluminum hydroxide, an adjuvant known to promote the development of a Th2 response by the immune system, on day 0 (denoted by first day injection) and day 7. Full body inhaled exposure to OVA was initiated at day 21. Briefly, these treatments utilized an InExpose full body aerosol chamber (Scireq, Montreal, Canada) where a 1% OVA solution, suspended in PBS, pH 7.45, was nebulized at 0.2 mL/min with a filtered room air flow rate of 2400 mL/min for a total period of 30 minutes, 3 times a week for either 42 (FIG. 13A) or 62 days (FIG. 13B). (Acute asthma model) Seven week old female Balb/c mice were injected intraperitoneally with 50 μg of chicken OVA absorbed with 1 mg aluminum hydroxide on day 0 (denoted by first day injection) and day 7. Aqueous OVA ([…] in PBS) was delivered intranasally daily from day 20 to day 24 (FIG. 2), Vasculotide or saline vehicle (control, PBS) was delivered to the mice via IP injections.
Blood was collected from the left ventricle of anaesthetized mice into heparinized 1 cc syringes. Following collection, blood was placed into Li-heparin microtubes. Subsequently, the tubes were centrifuged at 3000 RPM for 15 minutes at 4° C. Plasma was collected from the top of the samples and frozen at −80° C. for later analysis. The remaining buffy coat and red blood cells were lysed then fixed in 1× lyse/fix buffer (BD Biosciences, Mississauga, Canada) according to manufacturer's instructions.
Twenty-four hours after last aerosol exposure and immediately following exsanguinations, tissue was dissected from neck to expose trachea. A small lateral incision was made in the trachea to allow passage of 23 gauge lavage catheter into trachea. The catheter, attached to a 3 cc syringe containing warmed Hanks buffer, was carefully passed into the lumen of the trachea. A suture was secured around the trachea with a knot to secure the catheter in place. Buffer (1 cc) was injected slowly into the lungs and fully aspirated three times. The volume of recovered buffer was recorded for each animal to facilitate calculation of BAL infiltrate.
Analysis of plasma samples generated for the asthma study was the same as that outlined for the atopic dermatitis study with one small modification. Plasma from mice used in the asthma study was diluted 1:4 instead of 1:8 for the atopic dermatitis samples.
(BAL analysis) Collected BAL fluid was centrifuged at 1000 RPM for 10 minutes at 4° C. BAL fluid was removed and collected for subsequent CBA analysis. The BAL cell pellet was lysed/fixed in 1× lyse/fix buffer according to manufacturer's instructions (BD Biosciences, Mississauga, Canada). The total number of cells contained in each sample was determined by flow cytometry using flow-set beads (Count Bright Beads, Invitrogen), to facilitate sample volume and cell count calculations. A total of 7000 beads were counted for each sample. Flow cytometry analysis was gated on FSC/SSC to eliminate debris and dead cells. Differential cell count analysis was also performed by FACS where surface marker antibodies were used as follows: eosinophils (SSC^hi FITCmed Ige^med), neutrophils (SSC^med FITC^hi Ige^med), monocytes (SSC^med CD11b^+ CD115^+) and lymphocytes (SSC^lo and CD4^+ or CD8^+). In addition to monocyte markers (SSC^med CD11b^+ CD115^+), these cell populations were further characterized using antibodies specific for Tie2, TLR4, and Ly6C. Ly6C^low and Ly6C^high further define monocytes as classical, resident monocytes or inflammatory monocytes, respectively. Identified neutrophils were further labelled with antibodies to Tie2 and TLR4. All cell suspensions were incubated with purified anti-CD16/CD32 mAb (BD Biosciences, Mississauga, ON, Canada) to block non-specific background caused by Fc receptors, followed by incubation with the specific antibodies. […]

[3] = test system: Eo/B progenitors; assay: Modulation of eosinophil/basophil progenitors (Eo/B-CFU); format: cell-based; conditions: preliminary data
Method: Thus, Eo/B from mice and healthy donors are isolated. Eosinophils from the periphery or bone marrow are enriched by magnetic bead sorting using anti CD125 (IL-5Ra) conjugated to magnetic particles. These cells preparations are stimulated with either recombinant Ang1 or Vasculotide and different cellular parameters are measured, including cellular growth, apoptosis, migration and Tie2-specific cellular signaling.
To examine the effect of Vasculotide on Eo/B progenitors, bone marrow colony assays are performed. Human bone marrow preparations are purchased from Stem Cell Technologies (Vancouver, BC) and murine bone marrow are obtained by flushing femurs of normal mice. Non-adherent mononuclear cells are cultured in MethoCult supplemented with IL-5 to optimize for eosinophil/basophil colony formation (Eo/B-CFU). […] The appearance of Eo/B-CFU is measured.
Eo/Bs and their progenitors are harvested from Vasculotide treated asthmatic animals from the periphery or bone marrow. In order to establish an Eo/B cellular profile treated and non-treated animals are harvested on week 1, 2, 4 and 6 and the number of Eo/Bs in the periphery, bone marrow and progenitors is determined. The number of peripheral and bone marrow eosinophils is determined by flow cytometry analysis using Ly6G, CD11b, IgE and free FITC markers. Eo/B progenitors in the bone marrow are measured by Eo/B-CFU assay.

[4] = chronic asthma, sustained effect

With “Vasculotide: Modified T7 peptide (CHHHRHSF, SEQ ID NO:2) conjugated to 10 kDa tetrameric polyethylene glycol-maleimide; Tie2 binding peptide mimetic” the “all other populations of cells (colonies)” value [1] was “statistically indistinguishable from PBS control”, the “total CFU-G numbers” value ([1]; vs PBS) was “statistically significant, dose-dependent reduction; also recorded: dose dependent, statistically significant reduction” and the “Tie2 levels in BAL neutrophils” value ([2]; asthmatic mice, flow cytometry) was “unchanged”. For the same substance, the BAL neutrophil count ([2]; chronic asthma, d42) was “unchanged”, the BAL eosinophil numbers ([2]; chronic asthma, d42 and d62) was “significantly decreased; also recorded: statistical reduction” and the “BAL monocyte infiltration / absolute number of monocytes” value ([2]; chronic asthma, d42 and d62) was “significantly decreased; also recorded: statistical reduction”. The “inflammatory monocytes (Ly6C+) in BAL” value ([2]; chronic asthma, d42 and d62) was “decreased”, the “absolute number of peripheral blood mononuclear cells” value ([2]; chronic asthma, d42 or d62, did not reach significance) was “clear trend toward a reduction” and the BAL neutrophil count ([2]; chronic asthma, d62) was “slight increase”. The BAL neutrophil count ([2]; chronic asthma, d62, listed as Vsaculotide) was “very small increase”, the BAL lymphocytes ([2]; chronic asthma, day 42 and day 62) was “statistical reduction” and the “plasma IL-5 (cytometric bead array)” value [2, 4] was “decreasing”. For the same substance, the “plasma RANTES (cytometric bead array)” value [2, 4] was “decreasing”, the “plasma TNF (cytometric bead array)” value [2, 4] was “decreasing” and the “reduction of total absolute BAL counts” value ([2]; d42 chronic asthma model, systemic (IP) treatment, flow cytometry) was 45%. For the same substance, the “TLR4 expression on BAL eosinophils (mean fluorescence intensity)” value ([2]; d42 chronic asthma, PBS 166) was 758 MFI, the “cell surface level of Tie2 on BAL eosinophils (mean fluorescence intensity)” value ([2]; d42 chronic asthma, PBS 566) was 205 MFI and the “decrease in lung collagen deposition (Masson's trichrome, % blue positive area)” value ([2]; d62 chronic asthma, vs PBS) was 4 fold. For the same substance, the “TLR4 expression on BAL eosinophils (mean fluorescence intensity)” value ([2]; d62 chronic asthma, PBS 118) was 132 MFI and the “effect on Eo/B progenitors” value [3] was “impacts the Eo/B progenitors directly”.
